Here are results for six compounds from patent US9193687B2 (priority 2007, dated 2015).

One data set relates to lung cancer H1299. Kind of data set: cells. The settings on record: read-out: Cytotoxicity IC50, H1299; Table 2.
For data set [1], the system named is Human colon carcinoma HCT-116 cells. The settings on record: read-out: Cytotoxicity IC50, HCT-116.
The test system of data set [2] is CCRF-CEM human lymphoblastic leukemia cells. Particulars: read-out: Cytotoxicity IC50, CCRF-CEM.
The subject of another data set is lung cancer H460. Kind of data set: cells. Particulars: read-out: Cytotoxicity IC50, H460; Table 2.
The next data set concerns prostate cancer (PC3). Kind of data set: cells. Particulars: read-out: Cytotoxicity IC50, PC3; Table 2.
The test system of a further data set is CCRF-CEM/Taxol. Kind of data set: In vitro cytotoxicity, XTT assay, taxol-resistant subline. The settings on record: read-out: Cytotoxicity IC50, CCRF-CEM/Taxol. In general terms: Tetrazolium dyes change colour on reduction, which living cells bring about.
In data set [3] the test system is Human mammary carcinoma (MX-1) tumor cells. Kind of data set: In vitro cytotoxicity, SRB assay, 72-hr incubation. The settings on record: read-out: Cytotoxicity IC50, MX-1; Table 1; SRB, 72-hr incubation. (In general: In SRB staining, fixed cells bind dye roughly in proportion to their protein.)
The subject of data set [4] is human mammary carcinoma MX-1 xenograft. Kind of data set: Antitumor therapeutic effect against MX-1 xenograft in nude mice. It is filed as in vivo. Particulars: i.v. injection. As for the experimental part:
(§1) Athymic nude mice bearing the nu/nu gene were obtained from NCI, Frederick, Md. and used for all human tumor xenografts. Male nude mice 6 weeks or older weighing 20-24 g or more were used. Compounds were administered via the tail vein for i.v. injection or infusion as described previously.^64 A typical formulation for chemotherapeutic studies for each drug was dissolved in DSMO to make a 25 mg/ml fresh solution, 0.4 ml of this solution was mixed with 0.3 ml of Tween 80, plus 1.3 ml to make 2 ml of 5 mg/ml solution. Bolus injection volume was 0.1-0.2 ml per mouse. Tumor volume was assessed by measuring length×width×height (or width) by using a caliper. For tumor-bearing nude mice during the course of the experiment, the body weight refers to total weight minus the weight of the tumor. All animal studies were conducted in accordance with the guidelines for the National Institute of Health Guide for the Care and Use of Animals and the protocol approved by the Institutional Animal Care and Use Committee.
The therapeutic effects of a drug against human tumor xenografts in nude mice, under the optimal therapeutic conditions but without any lethality due to drug toxicity, the following degrees of therapeutic effects are defined and calculated by the following formula: […]
where • T0 is the initial tumor size (in mm^3) at beginning of drug treatment; • Tc is tumor size of untreated control group on a given date; and • Tx is tumor size of the drug treated group on a given date.
[formula] • Tumor disappearance (complete remission or CR) is defined by the effect where • [Tx=0] for a period of time (in days) for a proportion of animals (NCR/N), where • N is the total number of animals in the group, and NCR is the number of mice in the group that achieved CR. • Tumor relapse is quantitatively calculated by • [The Day tumor relapsed (Drelp)—The Day CR achieved (DCR)] (Eq. 3) for a proportion of animals (Nrelp/N) where N is the total number of animals in the group, and Nrelp is the number of the mice in the group that relapsed. • The log cell kill (LCK) of the tumor tissue after a given chemotherapy that reached CR is estimated by: LCK=log [2^(Tumor remission in days/Tumor doubling time in days)] (Eq. 4)
(§2) Athymic nude mice bearing the nu/nu gene were used for human breast tumor MX-1 xenograft (FIGS. 3 and 4) and human brain glioma U87 GM xenograft (FIG. 5). Nude mice were obtained from National Cancer Institute, Frederick, Md. Male mice 6 weeks old or older weighing 22 g or more were used for experiments with subcutaneous tumor inoculation as described previously.^67 Drug was administrated via the tail vein by iv injection. Tumor volumes were assessed by measuring length×width×height (or width) by using caliper. Vehicle used was 20 μL DMSO in 180 μL saline. All animal studies were conducted in accordance with the guidelines of the U.S. National Institutes of Health Guide for the Care and Use of Animals and the protocol approved by the Institutional Animal Care and Use Committee.

Data set [5] in a line: Half-life in intravenous injection vehicle. The settings on record: intravenous injection vehicle (DMSO/Tween 80/saline).
Data set [6] relates to human glioma U87 GM s.c. xenograft. Description: Therapeutic effect against U87 glioma s.c. xenograft in nude mice. It is filed as in vivo. As to the method: as §1
as §2, with “Committee. […]” for “Committee.”

In data set [7] the test system is Human colon carcinoma HCT-116 cells. Description: cells. The settings on record: HCT-116, 72 h, read-out: Cytotoxicity IC50, HCT-116.
Data set [8] deals with CCRF-CEM human lymphoblastic leukemia cells. Kind of data set: cells. Particulars: 72 h, read-out: Cytotoxicity IC50, CCRF-CEM.
Data set [9] relates to biosynthesis of DNA, RNA and protein in MX-1 cells. Description: Inhibition of biosynthesis of DNA, RNA and protein (tritiated tracer incorporation). The class given is cell-based, human.
Method: [^3H]Thymidine (1 uCi), [^3H]adenosine (1 μCi) and [^3H]leucine (2 μCi) were used as the tracers for incorporation into DNA, RNA and protein, respectively. […] Incubation was terminated at each time points as indicated.
[10] abbreviates: dose and schedule per compound as in Table 3.

Several values for one entry are separate records, joined by “and”; a condition that tells them apart may be missing. Identical values can stand only once. Counter-ions that a name gives are not always drawn. Like-named read-outs stand apart in the source and are kept apart here. Where only a bound is given, the exact number is not on record here.

`N.N.[Cl][Pt][Cl]` [Cisplatin, reference compound]: the IC50 amounted to 13600 nM in the data set on lung cancer H1299; 12700 nM in data set [1] (Table 2); 3540 nM in data set [2] (Table 2); 18400 nM in the data set on lung cancer H460; 9960 nM in the data set with prostate cancer (PC3).

In turn, `CN(C)CC(=O)Nc1cccc(NC(=O)Nc2ccc(N(CCCl)CCCl)cc2)c1` (as salt: hydrochloride) [BO-2189, N-(3-(3-(4-(bis(2-chloroethyl)amino)phenyl)ureido)phenyl)-2-(dimethyl-amino)acetamide] returned a melting point of 62 to 64 °C.

With `CC(C)COC(=O)Nc1cc(COC(=O)Nc2ccc(N(CCCl)CCCl)cc2)cc(Nc2c3ccccc3nc3ccccc23)c1` [BO-1244], the IC50 in data set [1] (Table 1, SRB, 72-hr incubation) amounted to 300 nM; in the data set with CCRF-CEM/Taxol (Table 1, XTT, 72-hr incubation), 650 nM; in [2] (Table 1, XTT, 72-hr incubation), 190 nM; in data set [3] it was 1130 nM.

Turning to `Cc1ccc(Nc2c3ccccc3nc3c(C)cccc23)cc1NC(=O)Nc1ccc(N(CCCl)CCCl)cc1` [BO-1051], in data set [4] (treatment from Day 8, dose and schedule per compound as in Table 3 (30-150 mg/kg)), the “Therapeutic effect: complete tumor remission (CR), mice with CR/total and day” value was “achieved complete tumor remission and 3/3 CR on D16, 16, 18”. In addition, in [4] (setting [10]), the “Maximal body-weight loss (%)” value is listed as 11%. Also, the “Therapeutic effect: tumor relapse” value in data set [4] (setting [10]) is on record as “No relapse on D70”. Further, the values for the half-life (in data set [5]; in the data set “Half-life in rat plasma”) were approximately 45 days and 2.25 days, respectively. For the same compound, the “Tumor size as % of original tumor size” value in data set [6] (100 mg/kg, Q2D×5, n=3, one cycle, 10 and 12 days after last dose) amounted to 18%. In addition, the Tumor-growth suppression entry in data set [6] (BO-1049 150 mg/kg, BO-1051 100 mg/kg, BO-1055 30 mg/kg, Q2D×5, i.v.-injection) is reported as “complete tumor-growth suppression”. In data set [6] (parallel study), the “Therapeutic effect compared with cyclophosphamide (80 mg/kg, Q2D×5)” value is “superior therapeutic effects than cyclophosphamide”. Also, the IC50 with CCRF-CEM/Taxol (Homo sapiens, CCRF-CEM, 72 h) was determined as 90 nM; in data set [7], 440 nM; in data set [8], 80 nM. In addition, in data set [9] (10 μM), the “Delay in reaching maximal effect on DNA and RNA biosynthesis” value is listed as “about 1 hr”. Also, the inhibition at 10 µM in data set [9] (Homo sapiens, MX1, read-out: Protein synthesis inhibition) is less than 20%.

On to `CN(C)CCC(=O)Nc1cccc(NC(=O)Nc2ccc(N(CCCl)CCCl)cc2)c1` (as salt: HCl) [BO-2091, N-(3-(3-(4-(bis(2-chloroethyl)amino)-phenyl)ureido)phenyl)-3-(dimethylamino)-propanamide], for which the melting point was in the range of 88 to 90 °C.

For `Cc1ccc(Nc2c3ccccc3nc3ccccc23)cc1NC(=O)Nc1ccc(N(CCCl)CCCl)cc1` [BO-1150], the IC50 in data set [1] (Table 1, SRB, 72-hr incubation) came to 260 nM; with CCRF-CEM/Taxol (Table 1, XTT, 72-hr incubation) it was 30 nM; in data set [2] (Table 1, XTT, 72-hr incubation) it was 20 nM; in data set [3], 580 nM.

By melting point is commonly meant the temperature, or range, at which the solid turns liquid. What is called half-life is the time needed for the level to fall by half in the phase considered. A word on the inhibition: it is the share of the control response that was lost under treatment.
